In patent publication US20020028188A1, “Method of preparing particularly skin-compatible cosmetic or dermatological cleansing preparations” (priority 1999, published 2002):

Tested on: surface of the skin
Experiment: adsorption of lauryl ether sulfate on the skin (simulated washing operation, forearm, desorption, ion-pair chromatography)
Format: in vivo, human
Conditions: significance: Yes
Procedure: The method which we have developed for determining the adsorption of lauryl ether sulfate on the skin simulates a washing operation as occurs, for example, during daily showering: Firstly, the inner sides of the forearms are divided into a number of test areas using insulating tape. The area to be treated is then wetted with approximately 50 ml of mains water (T=38±1° C.). The lauryl ether sulfate is then applied. Throughout the application period of 45 s, the test subject distributes the lauryl ether sulfate over the area using 2 fingers in uniform circular movements. At the end of the application period, the test area is rinsed with approximately 950 ml of mains water (T=38±1° C.) and carefully patted dry using a clean cellulose cloth. For the desorption, a plastic ring with an internal diameter of 25 mm is pressed firmly onto the inner side of the test subject's forearm. 1000 μl of a 1% Triton X-100 solution are then introduced into the ring. The tip of a round Teflon-coated spatula is then used to scrape the skin uniformly for 1 min. This leads to suspension of corneocytes. To work up the samples for analysis, the samples are centrifuged and 800 μl of the supernatant are drawn off. The supernatant is analyzed with regard to its lauryl ether sulfate content using ion-pair chromatography. The effectiveness of the desorption method described is 79%, i.e. 79% of the amount of lauryl ether sulfate actually present on the skin are included.

[1] = cosurfactant concentration 3% added to a lauryl ether sulfate solution

Molecule	Effect on the adsorbed amount of lauryl ether sulfate (Reduction by) [1]	further results
CCCCCCCCCCO[C@@H]1O[C@H](CO)[C@@H](O)[C@H](O)[C@H]1O [Decyl glucoside]	–	Effect on the adsorbed amount of lauryl ether sulfate (Reduction by) (cosurfactant concentration 5% added to a lauryl ether sulfate solution): Reduction by 29%
CCCCCCCCCCCC(=O)O [Lauric acid]	–	Effect on the adsorbed amount of lauryl ether sulfate (Reduction by) (cosurfactant concentration 1%, pH9, added to a lauryl ether sulfate solution): Reduction by 15%
Cocamidopropylbetaine	Reduction by 31%	–
Disodium laureth sulfosuccinate	Reduction by 28%	–
Sodium cocoamphoacetate	Reduction by 27%	–
